# Source: ChEMBL document CHEMBL1131488, “Dihydropyrancarboxamides related to zanamivir: a new series of inhibitors of influenza virus sialidases. 1. Discovery, synthesis, biological activity, and structure-activity relationships of 4-guanidino- and 4-amino-4H-pyran-6-carboxamides” (J Med Chem, 1998)
# Tests used:
# [1] = target: Neuraminidase (Influenza A virus (A/Puerto Rico/8/1934(H1N1)), UniProt P03468); test: Inhibition of influenza A virus sialidase activity
# Neuraminidase [2] = target: T1, Neuraminidase (Influenza B virus (strain B/Lee/1940), UniProt P03474); test: Inhibition of influenza B virus sialidase activity
# T1 sequence (P03474 whole entry): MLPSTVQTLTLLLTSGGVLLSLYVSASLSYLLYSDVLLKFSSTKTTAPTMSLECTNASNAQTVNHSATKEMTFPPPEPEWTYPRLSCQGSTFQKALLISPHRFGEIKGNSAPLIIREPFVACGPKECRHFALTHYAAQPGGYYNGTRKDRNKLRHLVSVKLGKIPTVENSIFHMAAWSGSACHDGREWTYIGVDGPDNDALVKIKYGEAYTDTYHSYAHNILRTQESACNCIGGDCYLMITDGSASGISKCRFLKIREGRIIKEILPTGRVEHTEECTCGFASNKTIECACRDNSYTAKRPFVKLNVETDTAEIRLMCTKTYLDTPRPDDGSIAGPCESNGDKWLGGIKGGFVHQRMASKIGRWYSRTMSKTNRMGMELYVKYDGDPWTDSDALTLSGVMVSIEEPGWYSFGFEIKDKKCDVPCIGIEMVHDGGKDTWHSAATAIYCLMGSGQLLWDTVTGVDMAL
# Mus musculus [3] = test: Compound was tested for in vivo efficacy in mouse model of influenza A virus A/Singapore/1/57 at dose of 0.1 mg/kg.; format: functional
# Mus musculus [4] = test: Compound was tested for in vivo efficacy in mouse model of influenza A virus A/Singapore/1/57 at dose of 50 mg/kg.; format: functional
# [5] = Clp, plasma clearance at a dose of 10 mg/kg; format: ADME, organism-based; set-up: dose 10 mg/kg; conditions: read-out: Clp
# Mus musculus [6] = test: Compound was tested for concentration of intranasally administered drug (1 mg/kg) which reduces virus titer by 90%; format: functional; conditions: inhaled or nasal
# [7] = Vss, volume of distribution at steady state at a dose of 10 mg/kg; format: ADME, organism-based; set-up: dose 10 mg/kg; conditions: in vivo, read-out: Vss
# [8] = t1/2, plasma elimination half life, the time taken for the plasma concentrations to fall by one half, once distribution is complete at a dose of 10 mg/kg; format: ADME, organism-based; set-up: dose 10 mg/kg
# Mus musculus [9] = test: Compound was tested for in vivo efficacy in mouse model of influenza A virus A/Singapore/1/57 at dose of 1 mg/kg.; format: functional
# [10] = target: Neuraminidase (Influenza A virus (A/Puerto Rico/8/1934(H1N1)), UniProt P03468)
# Neuraminidase [11] = target: T1, Neuraminidase
# [12] = target: Neuraminidase (Influenza A virus (A/Puerto Rico/8/1934(H1N1)), UniProt P03468); test: Inhibition of sialidase (Flu A, 5 nM)
# Neuraminidase [13] = target: T1, Neuraminidase; test: Inhibitory activity against sialidase of influenza B virus by plaque reduction assay
# Mus musculus [14] = test: Compound was tested for in vivo efficacy in mouse model of influenza A virus A/Singapore/1/57 at dose of 50 mg/kg.(ip); format: functional
# Mus musculus [15] = test: Compound was tested for in vivo efficacy in mouse model of influenza A virus A/Singapore/1/57 at dose of 1 mg/kg. (in); format: functional
# Mus musculus [16] = test: Compound was tested for in vivo efficacy in mouse model of influenza A virus A/Singapore/1/57 at dose of 10 mg/kg.(ip); format: functional
# Influenza A virus [17] = test: Compound was tested for in vivo efficacy in mouse model of influenza A virus A/Singapore/1/57 at dose of 10 mg/kg. (in); format: functional
# Influenza A virus [18] = test: Compound was tested for in vivo efficacy in mouse model of influenza A virus A/Singapore/1/57 at dose of 100 mg/kg. (i.p.); format: functional; conditions: route intraperitoneal
# Influenza A virus [19] = test: Compound was tested for concentration of intranasally administered (in) (10 mg/kg) which reduces virus titer by 90%; format: functional; conditions: inhaled or nasal
# Neuraminidase [20] = target: T1, Neuraminidase; remark: listed apart in the source
# Sequence of Neuraminidase (Influenza A virus (A/Puerto Rico/8/1934(H1N1)), UniProt P03468) (P03468 whole entry): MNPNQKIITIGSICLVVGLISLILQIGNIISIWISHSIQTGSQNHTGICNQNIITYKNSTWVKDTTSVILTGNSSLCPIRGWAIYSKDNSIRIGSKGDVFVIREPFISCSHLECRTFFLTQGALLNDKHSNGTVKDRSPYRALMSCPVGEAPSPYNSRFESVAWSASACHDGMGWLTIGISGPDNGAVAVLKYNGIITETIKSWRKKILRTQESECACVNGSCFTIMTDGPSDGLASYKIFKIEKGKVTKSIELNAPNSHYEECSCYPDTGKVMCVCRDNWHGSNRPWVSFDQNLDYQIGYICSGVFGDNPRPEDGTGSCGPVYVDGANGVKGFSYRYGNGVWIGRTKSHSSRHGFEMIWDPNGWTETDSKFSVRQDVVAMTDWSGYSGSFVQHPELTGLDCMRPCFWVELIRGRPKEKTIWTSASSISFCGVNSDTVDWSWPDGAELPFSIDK
compound,measurement,setting,value
CC(=O)N[C@@H]1[C@@H](N)C=C(C(=O)O)O[C@H]1C(=O)N(CCN)CCc1ccccc1,IC50,[1],47 µM
same,IC50,Neuraminidase [2],260 µM
CCCN(CCC)C(=O)[C@@H]1OC(C(=O)O)=C[C@H](NC(=N)N)[C@H]1NC(C)=O,Reduction in virus titer,Mus musculus [3],99.3%
same,Reduction in virus titer,Mus musculus [4],86%
same,clearance,[5],6 mL/min/kg
same,ED90,Mus musculus [6],< 0.01 mg/kg
same,Vd,[7],0.5 L/kg
same,half-life,[8],22.2 min
same,Reduction in virus titer,Mus musculus [9],99.93%
CC(=O)N[C@@H]1[C@@H](N)C=C(C(=O)O)O[C@H]1C(=O)N(CCN=[N+]=[N-])CCc1ccccc1,IC50,[10],0.009 µM
same,IC50,Neuraminidase [11],28 µM
CCN(CC)C(=O)[C@@H]1OC(C(=O)O)=C[C@H](NC(=N)N)[C@H]1NC(C)=O,Reduction in virus titer,Mus musculus [4],89%
CC(=O)N[C@@H]1[C@@H](N)C=C(C(=O)O)O[C@H]1C(=O)N(CCc1ccccc1)CCN(C)C,IC50,[1],> 300 µM
same,IC50,Neuraminidase [2],> 300 µM
CC(=O)N[C@@H]1[C@@H](N)C=C(C(=O)O)O[C@H]1C(=O)NCCO,IC50,[12],420 µM
CCCN(CCc1ccc(O)cc1)C(=O)[C@@H]1OC(C(=O)O)=C[C@H](N)[C@H]1NC(C)=O,IC50,[1],0.009 µM
same,IC50,Neuraminidase [2],1.9 µM
CC(=O)N[C@@H]1[C@@H](N)C=C(C(=O)O)O[C@H]1C(=O)N(CCc1ccccc1)C(C)C,IC50,[1],0.008 µM
same,IC50,Neuraminidase [2],7.9 µM
CC(=O)N[C@@H]1[C@@H](N)C=C(C(=O)O)O[C@H]1C(=O)NCCN,IC50,[12],> 390 µM
CC(=O)N[C@@H]1[C@@H](N)C=C(C(=O)O)O[C@H]1C(=O)N1C(C)CCN1C (stereo partly drawn),IC50,[10],0.052 µM
same,IC50,[1],0.21 µM
same,IC50,Neuraminidase [11],20 µM
same,IC50,Neuraminidase [2],13 µM
CC(=O)N[C@@H]1[C@@H](N)C=C(C(=O)O)O[C@H]1C(=O)N(CCc1ccccc1)CC(C)C,IC50,[1],0.014 µM
CCCN(CCc1ccc(OC)cc1)C(=O)[C@@H]1OC(C(=O)O)=C[C@H](N)[C@H]1NC(C)=O,IC50,[1],0.008 µM
same,IC50,Neuraminidase [2],3.3 µM
CCCN(CC)C(=O)[C@@H]1OC(C(=O)O)=C[C@H](N)[C@H]1NC(C)=O,IC50,Neuraminidase [2],0.41 µM
CC(=O)N[C@@H]1[C@@H](N)C=C(C(=O)O)O[C@H]1C(=O)N(CCCO)CCc1ccccc1,IC50,[1],3 µM
same,IC50,Neuraminidase [2],> 360 µM
CCCN(CCc1ccc(Cl)cc1Cl)C(=O)[C@@H]1OC(C(=O)O)=C[C@H](N)[C@H]1NC(C)=O,IC50,[1],0.006 µM
same,IC50,Neuraminidase [2],16 µM
CC(=O)N[C@@H]1[C@@H](N)C=C(C(=O)O)O[C@H]1C(=O)NCCc1ccccc1,IC50,Neuraminidase [13],> 100 µg/mL
CCCCCCCCCN(CCC)C(=O)[C@@H]1OC(C(=O)O)=C[C@H](N=C(N)N)[C@H]1NC(C)=O,IC50,[1],0.007 µM
same,Reduction in virus titer,Mus musculus [14],50%
same,clearance,[5],21.8 mL/min/kg
same,Vd,[7],1.2 L/kg
same,IC50,Neuraminidase [2],> 3 µM
same,Reduction in virus titer,Mus musculus [15],72%
same,half-life,[8],55.2 min
same,Reduction in virus titer,Mus musculus [16],>99.99%
CCCCCCCCCN(CCC)C(=O)[C@@H]1OC(C(=O)O)=C[C@H](N)[C@H]1NC(C)=O,clearance,[5],17.9 mL/min/kg
same,Vd,[7],1.3 L/kg
same,Reduction in virus titer,Influenza A virus [17],96%
same,Reduction in virus titer,Influenza A virus [18],71%
same,half-life,[8],52.2 min
same,ED90,Influenza A virus [19],> 1 mg/kg
CC(=O)N[C@@H]1[C@@H](N)C=C(C(=O)O)O[C@H]1C(=O)N(CCc1ccccc1)CC(N)=O,IC50,[1],19 µM
same,IC50,Neuraminidase [2],31 µM
C=CCN(CC=C)C(=O)[C@@H]1OC(C(=O)O)=C[C@H](N)[C@H]1NC(C)=O,IC50,Neuraminidase [20],8.4 µM
same,IC50,[12],0.04 µM
CCC1CCC(CC)N1C(=O)[C@@H]1OC(C(=O)O)=C[C@H](N)[C@H]1NC(C)=O (stereo partly drawn),IC50,[1],0.29 µM
same,IC50,Neuraminidase [2],26 µM
